Source: PMC11178545, “Alkynyl nicotinamides show antileukemic activity in drug-resistant acute myeloid leukemia” (The Journal of Clinical Investigation, 2024)
Where “and” joins values, the source holds several entries; their conditions need not be identical. Equal values may be shown once.

How the values were obtained:
[1] = test system: HL60 cells; assay: HL60 proliferation, colorimetric assay (Supplementary Figure 3C); format: cell-based, human; conditions: for Supplementary Figure 3C - HL-60 proliferation: replicates
[2] = test system: FLT3 ITD; assay: FRET binding kinetics and residence time; conditions: FLT3 ITD
Experimental: In vitro kinase assays were performed at DiscoverX. […] Kinases used in the panel are tagged with DNA barcodes. Screening “hits” are identified by measuring the amount of kinase still bound to the immobilized ligand after compound treatment by using a quantitative, precise, and ultra-sensitive qPCR method that detects the associated DNA label. […] Residence time determination assays were conducted by Enzymlogic.

For `CN1CCN(Cc2ccc(NC(=O)c3cncc(C#Cc4cnc5cccnn45)c3)cc2C(F)(F)F)CC1` [HSN748], the “sensitivity of HL-60” value ([1]; FLT3ITD-negative, in words) was “relatively resistant”, the “Supplementary Figure 3C - HL-60 proliferation” value (“Supplementary Figure 3C” for short) ([1]; x value 0 (log concentration, unit not given)) was 126.367 and 99.4756 and 91.5226 and the “Supplementary Figure 3C” value ([1]; x value 0.69897 (log concentration, unit not given)) was 114.117 and 99.8014 and 99.5435. The “Supplementary Figure 3C” value ([1]; x value 1.39794 (log concentration, unit not given)) was 103.766 and 95.9936 and 100.285, the “Supplementary Figure 3C” value ([1]; x value 2.39794 (log concentration, unit not given)) was 114.049 and 91.7819 and 83.5736 and the “Supplementary Figure 3C” value ([1]; x value -0.69897 (log concentration, unit not given)) was 106.484 and 100.27 and 100.492. For the same compound, the “Supplementary Figure 3C” value ([1]; x value -1.39794 (log concentration, unit not given)) was 130.019 and 108.903 and 106.018, the “Supplementary Figure 3C” value ([1]; x value -2.09691 (log concentration, unit not given)) was 121.095 and 97.772 and 89.3005 and the “Supplementary Figure 3C” value ([1]; x value -2.5 (log concentration, unit not given)) was 100. The “FRET signal, binding kinetics” value ([2]; 1 nM, 2 min) was 1512.06, the “FRET signal, binding kinetics” value ([2]; 1 nM, 2.77 min) was 1487.03 and the “FRET signal, binding kinetics” value ([2]; 1 nM, 3.53 min) was 1572.91. For the same compound, the “FRET signal, binding kinetics” value ([2]; 1 nM, 4.3 min) was 1613.6, the “FRET signal, binding kinetics” value ([2]; 1 nM, 5.07 min) was 1530.78 and the “FRET signal, binding kinetics” value ([2]; 1 nM, 5.83 min) was 1590.19. The “FRET signal, binding kinetics” value ([2]; 1 nM, 7.37 min) was 1585.41, the “FRET signal, binding kinetics” value ([2]; 1 nM, 8.13 min) was 1581.76 and the “FRET signal, binding kinetics” value ([2]; 1 nM, 8.9 min) was 1498.93. For the same compound, the “FRET signal, binding kinetics” value ([2]; 1 nM, 13.9 min) was 1583.26, the “FRET signal, binding kinetics” value ([2]; 1 nM, 18.9 min) was 1647.78 and the “FRET signal, binding kinetics” value ([2]; 1 nM, 23.9 min) was 1638.88. The “FRET signal, binding kinetics” value ([2]; 1 nM, 28.9 min) was 1586.36, the “FRET signal, binding kinetics” value ([2]; 1 nM, 38.9 min) was 1562.79 and the “FRET signal, binding kinetics” value ([2]; 1 nM, 43.9 min) was 1648.68. For the same compound, the “FRET signal, binding kinetics” value ([2]; 1 nM, 48.9 min) was 1595.35, the “FRET signal, binding kinetics” value ([2]; 1 nM, 53.9 min) was 1532.83 and the “FRET signal, binding kinetics” value ([2]; 1 nM, 58.9 min) was 1596.3. For the same compound, the “FRET signal, binding kinetics” value ([2]; 1 nM, 63.9 min) was 1539.46, the “FRET signal, binding kinetics” value ([2]; 1 nM, 68.9 min) was 1619.86 and the “FRET signal, binding kinetics” value ([2]; 1 nM, 83.9 min) was 1598.54. The “FRET signal, binding kinetics” value ([2]; 1 nM, 98.9 min) was 1544.46, the “FRET signal, binding kinetics” value ([2]; 10 nM, 2 min) was 1556.76 and the “FRET signal, binding kinetics” value ([2]; 10 nM, 2.77 min) was 1532. For the same compound, the “FRET signal, binding kinetics” value ([2]; 10 nM, 3.53 min) was 1494.49, the “FRET signal, binding kinetics” value ([2]; 10 nM, 4.3 min) was 1511.28 and the “FRET signal, binding kinetics” value ([2]; 10 nM, 5.07 min) was 1435.31. The “FRET signal, binding kinetics” value ([2]; 10 nM, 5.83 min) was 1564.74, the “FRET signal, binding kinetics” value ([2]; 10 nM, 7.37 min) was 1479.54 and the “FRET signal, binding kinetics” value ([2]; 10 nM, 8.13 min) was 1456.37. For the same compound, the “FRET signal, binding kinetics” value ([2]; 10 nM, 8.9 min) was 1494.89, the “FRET signal, binding kinetics” value ([2]; 10 nM, 13.9 min) was 1496.84 and the “FRET signal, binding kinetics” value ([2]; 10 nM, 18.9 min) was 1488.39. For the same compound, the “FRET signal, binding kinetics” value ([2]; 10 nM, 23.9 min) was 1452.19, the “FRET signal, binding kinetics” value ([2]; 10 nM, 28.9 min) was 1416.74 and the “FRET signal, binding kinetics” value ([2]; 10 nM, 38.9 min) was 1434.42. The “FRET signal, binding kinetics” value ([2]; 10 nM, 43.9 min) was 1355.13, the “FRET signal, binding kinetics” value ([2]; 10 nM, 48.9 min) was 1398.18 and the “FRET signal, binding kinetics” value ([2]; 10 nM, 53.9 min) was 1334.89. For the same compound, the “FRET signal, binding kinetics” value ([2]; 10 nM, 58.9 min) was 1357.06, the “FRET signal, binding kinetics” value ([2]; 10 nM, 63.9 min) was 1378.07 and the “FRET signal, binding kinetics” value ([2]; 10 nM, 68.9 min) was 1344.3. For the same compound, the “FRET signal, binding kinetics” value ([2]; 10 nM, 83.9 min) was 1246.36, the “FRET signal, binding kinetics” value ([2]; 10 nM, 98.9 min) was 1307.33 and the “FRET signal, binding kinetics” value ([2]; 100 nM, 2 min) was 1334.87. The “FRET signal, binding kinetics” value ([2]; 100 nM, 2.77 min) was 1338.71, the “FRET signal, binding kinetics” value ([2]; 100 nM, 3.53 min) was 1298.24 and the “FRET signal, binding kinetics” value ([2]; 100 nM, 4.3 min) was 1250.88. The “FRET signal, binding kinetics” value ([2]; 100 nM, 5.07 min) was 1250 and the “FRET signal, binding kinetics” value ([2]; 100 nM, 5.83 min) was 1333.21.
